Reference: PubChem BioAssay (NCI)
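How tested: cells in 96-well plates exposed to compound for 48 hours at five concentrations. TGI denotes the concentration required for complete inhibition of growth.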

What was measured:
Experiment in all cases: NCI tumour cell line growth inhibition, 48 h
[1] = system: IGROV1 ovarian
[2] = system: HL-60(TB) leukemia
[3] = system: DMS 114 small cell lung
[4] = system: DMS 273 small cell lung
[5] = system: HOP-18 NSCLC
[6] = system: KM20L2 colon
[7] = system: LXFL 529 NSCLC
[8] = system: M19-MEL melanoma
[9] = system: SNB-78 CNS
[10] = system: DLD-1 colon

Q: `C=C(C)[C@@H]1C[C@H]2O[C@](O)(C(=C)CC(=O)/C=C(/C)C[C@@H]3OC(=O)[C@]24O[C@@H]34)[C@H]1O` was tested. Which TGI [1] did it give?
A: The TGI was over 100 µM.

Q: What does the source list for `CC1=C(C(=O)N[C@@H](Cc2ccccc2)C(=O)O)N2C(=O)[C@@H](NC(=O)[C@@H](N)CC(C)C)[C@H]2SC1`?
A: TGI [2]: > 100 µM; TGI [1]: > 100 µM

Q: `C[C@@]12c3c4ccc(C=O)c3Oc3ccc(C=O)c(c31)Oc1c(C=O)ccc(c12)O4` was tested. Which TGI [1] did it give?
A: Its TGI is over 100 µM.

Q: What does the source list for `O=C1c2cccc3cccc(c23)C(=O)N1CCCNCCCCNCCCN1C(=O)c2cccc3cccc(c23)C1=O`?
A: TGI [2]: 1.93 µM; TGI [1]: 1.83 µM

Q: For `C=C(C)C#CC(O)(C(=O)OC1CCN(C)CC1)C(C)C` (stereo not given), which TGI [2] is on record?
A: Its TGI is over 100 µM.

Q: What about the TGI [1] of the same molecule?
A: The TGI was over 100 µM.

Q: With `Cc1nc(Cl)c2sc(=S)n(-c3ccc(F)cc3)c2n1` as the molecule, how does the TGI [2] read?
A: The TGI was 43.2 µM.

Q: What about the TGI [1] of the same molecule?
A: The TGI was 3.53 µM.

Q: Which TGI [3] does the source give for `COc1cc2cc[n+](C)c(Cc3ccccc3)c2cc1OC` here?
A: The TGI was over 100 µM.

Q: And the TGI [4]?
A: The TGI was over 100 µM.

Q: And the TGI [5]?
A: Its TGI is over 100 µM.

Q: And the TGI [1]?
A: Its TGI is over 100 µM.

Q: And the TGI [6]?
A: Its TGI is over 100 µM.

Q: And the TGI [7]?
A: Its TGI is over 100 µM.

Q: And the TGI [8]?
A: Its TGI is over 100 µM.

Q: And the TGI [9]?
A: Its TGI is over 100 µM.

Q: Which TGI [2] does the source give for `CCC(CS(=O)(=O)O)[N+](=O)[O-]` (stereo not given) here?
A: The TGI was over 100 µM.

Q: What about the TGI [1] of the same molecule?
A: The TGI was over 100 µM.

Q: Which TGI [2] does the source give for `COC(=O)C1=C(OC(=O)/C(=C/c2ccc(Cl)cc2Cl)c2ccc(Cl)cc2Cl)C(C(=O)OC)[C@@]2(O)[C@@H](C(=O)OC)[C@H](C)C[C@@H]1[C@@H]2C(=O)OC` (stereo not given in full) here?
A: Its TGI is over 100 µM.

Q: And the TGI [1]?
A: Its TGI is over 100 µM.

Q: How did the TGI [2] turn out when `C=CCN1C(=O)CC1N(CC=C)S(=O)(=O)c1ccc(C)cc1` (stereo not given) was run?
A: Its TGI is over 100 µM.

Q: What about the TGI [1] of the same molecule?
A: Its TGI is over 100 µM.

Q: Which TGI [2] does the source give for `NC(=O)C(c1ccccc1)N1OC2C(=O)N(Cc3ccccc3)C(=O)C2C1c1cccc(Oc2ccc(Cl)cc2)c1` (stereo not given) here?
A: The TGI was 51.2 µM.

Q: What about the TGI [1] of the same molecule?
A: Its TGI is over 100 µM.

Q: Which TGI [2] does the source give for `Cc1cccc(-n2c(C)nc3ccc(NC4OC(CO)C(O)C(O)C4O)cc3c2=O)c1` (stereo not given) here?
A: Its TGI is over 100 µM.

Q: What about the TGI [1] of the same molecule?
A: The TGI was over 100 µM.

Q: For `CC(CN(C)C)C(=O)c1ccccc1C(=O)O` (stereo not given), which TGI [2] is on record?
A: The TGI was 49.4 µM.

Q: And the TGI [1]?
A: Its TGI is over 100 µM.

Q: How did the TGI [2] turn out when `CO[C@H]1[C@@H](O)[C@@H](C)O[C@@H](O[C@H]2CC[C@@]3(C)[C@H](CC[C@@H]4[C@@H]3CC[C@]3(C)[C@@H](C5=CC(=O)OC5)CC[C@]43O)C2)[C@@H]1O` was run?
A: The TGI was 0.0119 µM.

Q: What about the TGI [1] of the same molecule?
A: Its TGI is 0.0848 µM.

Q: How did the TGI [10] turn out when `CNC(C)Cc1ccccc1O` (stereo not given) was run?
A: Its TGI is over 100 µM.

Q: And the TGI [3]?
A: The TGI was over 100 µM.

Q: What about the TGI [4] of the same molecule?
A: Its TGI is over 100 µM.

Q: And the TGI [2]?
A: Its TGI is over 100 µM.

Q: And the TGI [5]?
A: The TGI was over 100 µM.

Q: And the TGI [1]?
A: Its TGI is over 100 µM.

Q: And the TGI [6]?
A: Its TGI is over 100 µM.

Q: What about the TGI [7] of the same molecule?
A: The TGI was over 100 µM.

Q: What about the TGI [9] of the same molecule?
A: The TGI was over 100 µM.

Q: Which TGI [2] does the source give for `CCCCC1Cc2ccccc2-c2n1c1ccccc1[n+]2C` (stereo not given) here?
A: The TGI was 22.9 µM.

Q: And the TGI [1]?
A: Its TGI is over 100 µM.

Q: How did the TGI [2] turn out when `CN1CCC(CNC(=O)CCCCCCCCC(=O)NCC2(c3ccccc3)CCN(C)CC2)(c2ccccc2)CC1` was run?
A: Its TGI is over 100 µM.

Q: What about the TGI [1] of the same molecule?
A: The TGI was over 100 µM.

Q: `Oc1[nH]c2ccccc2c1N=NC(=S)N1CCCCC1` was tested. Which TGI [1] did it give?
A: Its TGI is 1.77 µM.

Q: Which results are given for `NCC[Se][Se]CCN`?
A: TGI [2]: 7.57 µM; TGI [1]: 25.7 µM

Q: How did the TGI [1] turn out when `CC(C)(N)CO[C@H]1C[C@H]2CC[C@@]1(C)C2(C)C` was run?
A: The TGI was over 100 µM.

Q: Which results are given for `COc1ccc(N(C)CN(C)c2nc(N(C)C)nc(N(C)C)n2)cc1`?
A: TGI [10]: > 100 µM; TGI [3]: > 100 µM; TGI [4]: > 100 µM; TGI [2]: > 100 µM; TGI [5]: > 100 µM; TGI [1]: > 100 µM; TGI [6]: > 100 µM; TGI [7]: > 100 µM; TGI [8]: > 100 µM; TGI [9]: > 100 µM

Q: For `N#Cc1nc(C2CC2)oc1N`, which TGI [1] is on record?
A: Its TGI is over 100 µM.

Q: With `O=C(O)c1nc2cc(C(F)(F)F)ccc2nc1Nc1ccc(Cl)c(Cl)c1` as the molecule, how does the TGI [1] read?
A: The TGI was 39.3 µM.

Q: With `COC(=O)c1ccccc1/C=C1/Cc2cccc(C)c2C1=O` as the molecule, how does the TGI [2] read?
A: Its TGI is over 100 µM.

Q: What about the TGI [1] of the same molecule?
A: The TGI was over 100 µM.

Q: With `COc1cccc(/C(CC(O)(C(F)(F)F)C(F)(F)F)=N\N(C)C)c1` as the molecule, how does the TGI [2] read?
A: The TGI was over 100 µM.

Q: What about the TGI [1] of the same molecule?
A: The TGI was over 100 µM.

Q: Which results are given for `CO[C@H]1O[C@@H]2CO[C@@H](c3ccccc3)O[C@H]2[C@@H]2CC=CCC[C@]12O`?
A: TGI [2]: 67 µM; TGI [1]: > 100 µM

Q: Which TGI [1] does the source give for `CCOC(=O)[C@@H]1C[C@H]1c1ccc(O)c(O)c1` here?
A: The TGI was over 100 µM.

Q: What does the source list for `CC1(C)OCC2(CO1)CSCCCSCC1(COC(C)(C)OC1)CSCCCSC2`?
A: TGI [2]: > 100 µM; TGI [1]: > 100 µM

Q: What does the source list for `[N-]=[N+]=Nc1ccc(NCCCCCC(=O)ON2C(=O)CCC2=O)c([N+](=O)[O-])c1`?
A: TGI [2]: > 100 µM; TGI [1]: > 100 µM

Q: Which TGI [1] does the source give for `C=C1CC(Cn2ccc(=O)[nH]c2=O)(c2ccc(-c3ccccc3)cc2)OC1=O` (stereo not given) here?
A: Its TGI is 2.64 µM.

Q: For `O=C1CSC(/C=C/c2ccccc2)N1c1ccc(-c2ccc(-n3c(-c4ccccc4)nc4ccccc4c3=O)cc2)cc1` (stereo not given), which TGI [2] is on record?
A: Its TGI is over 100 µM.

Q: And the TGI [1]?
A: Its TGI is 75.6 µM.

Q: With `COC(=O)CCC1(C)C2CCC1(C)/C(=N/O)C2` (stereo not given) as the molecule, how does the TGI [1] read?
A: The TGI was over 100 µM.

Q: How did the TGI [2] turn out when `CSc1c(C#N)c(O)n(-c2ccc(C)cc2)c(=O)c1C#N` was run?
A: The TGI was over 100 µM.

Q: And the TGI [1]?
A: The TGI was over 100 µM.

Q: Which results are given for `COC1(C(C)(C)C)C=C(C(C)(C)C)P(=O)(O)O1` (stereo not given)?
A: TGI [2]: > 100 µM; TGI [1]: > 100 µM

Q: For `CN(C)/C(N)=N/C(N)=Nc1cccc(Cl)c1`, which TGI [1] is on record?
A: Its TGI is 77.9 µM.

Q: Which results are given for `CCN(CC)c1ccc2c(c1)OC(=O)C(c1nnc(-c3ccc([N+](=O)[O-])cc3)o1)C2` (stereo not given)?
A: TGI [2]: > 100 µM; TGI [1]: > 100 µM

Q: Which TGI [1] does the source give for `Cc1cccc2[nH]c3cc(O)cc(O)c3c(=O)c12` here?
A: Its TGI is over 10 µM.

Q: For `NCCC(=O)N[C@H](Cc1cc(O)c(O)c(SCC(NC(=O)CC[C@H](N)C(=O)O)C(=O)NCC(=O)O)c1)C(=O)O` (stereo not given in full), which TGI [1] is on record?
A: Its TGI is over 50 µM.

Q: How did the TGI [2] turn out when `CCOC(=O)N1CCN(c2c(C)nc(C)[nH]c2=O)CC1` was run?
A: The TGI was over 100 µM.

Q: What about the TGI [1] of the same molecule?
A: Its TGI is over 100 µM.

Q: What does the source list for `CCC(C)C(C(=O)N/N=C1/SCC(=O)N1C)C(=O)N/N=C1/SCC(=O)N1C` (stereo not given)?
A: TGI [2]: 7.65 µM; TGI [1]: > 100 µM

Q: For `C[n+]1noc(/N=N\[O-])c1-c1cc(-c2c(/N=N\[O-])on[n+]2C)cc(-c2c(/N=N/[O-])on[n+]2C)c1`, which TGI [2] is on record?
A: Its TGI is over 100 µM.

Q: What about the TGI [1] of the same molecule?
A: Its TGI is over 100 µM.

Q: With `CN(C)CCNc1ccc2ncnc3c2c1C(=O)c1ccccc1-3` as the molecule, how does the TGI [2] read?
A: Its TGI is over 23.6 µM.

Q: What about the TGI [1] of the same molecule?
A: Its TGI is 0.574 µM.

Q: What does the source list for `O=c1[nH]c(=O)n(C2CC(O)C(CO)O2)cc1OCCc1ccccc1` (stereo not given)?
A: TGI [2]: > 100 µM; TGI [1]: > 100 µM
